We go through eleven compounds from patent US20180099931A1 (AbbVie S.à.r.l., priority 2016, published 2018).

This assay deals with T1, F508delCFTR (Homo sapiens, UniProt P13569, DEL508-508).
T1 construct: expressed in transfected cells; host or cells: CFBE41o- human lung-derived epithelial cells (CFBE4lo-F508delCFTR-HRP), doxycycline-inducible
Nature of the assay: Cell Surface Expression-Horse Radish Peroxidase (CSE-HRP) Assay.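 For Maximum % activity (with co-corrector): co-corrector and positive control are both the same reference corrector at 2 µM.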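 For Maximum % activity (without co-corrector): percent of the 2 µM on-plate positive control corrector response above DMSO.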 It is filed as cell-based. The note with it: for Emax / Maximum % activity (with co-corrector): maximum at any tested concentration, normalized to on-plate positive control; for Emax: read-out: Maximum % activity (without co-corrector). The procedure:
Cell Surface Expression-Horse Radish Peroxidase (CSE-HRP) Assay;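 for Maximum % activity (with co-corrector): co-corrector and positive control are both the same reference corrector at 2 µM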;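 for Maximum % activity (without co-corrector): percent of the 2 µM on-plate positive control corrector response above DMSO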
The development was achieved by expressing the F508delCFTR mutation along with a horseradish peroxidase (HRP) in the fourth exofacial loop, and then measuring the HRP activity using luminescence readout from these cells, CFBE4lo-F508delCFTR-HRP, that were incubated overnight with the test corrector compounds, either without or with the co-corrector. […] The test compounds were then added either without or with a co-corrector at the required concentrations and further incubated for 18-24 hours at 33° C. The highest concentration tested was 20 μM with an 8-point concentration response curve using a 3-fold dilution in both the test compound without or with the co-corrector. Three replicate plates were run to determine one EC50. All plates contained negative controls (dimethyl sulfoxide, DMSO) and positive control (2 μM of 3-[(2R,4R)-4-({[1-(2,2-difluoro-1,3-benzodioxol-5-yl)cyclopropyl]carbonyl}amino)-7-methoxy-3,4-dihydro-2H-chromen-2-yl]benzoic acid) as well as on-plate concentration response of the positive control. […] The raw counts from the experiment were analyzed using Accelrys® Assay Explorer v3.3.
1−[3*SDPositive Control+3*SDNegative Control/Absolute(MeanPositive Control−MeanNegative Control)]
wherein “SD” is standard deviation.
The % activity measured at each of the 8 test concentrations of the test compound added either without or with a co-corrector (2 μM of 3-[(2R,4R)-4-({[1-(2,2-difluoro-1,3-benzodioxol-5-yl)cyclopropyl]carbonyl}amino)-7-methoxy-3,4-dihydro-2H-chromen-2-yl]benzoic acid) was normalized to the on-plate positive control using the following formulae:
% activity(Test compound without co-corrector)=[(test compound without co-corrector response−DMSO response)/(positive control response−DMSO response)]*100
% activity(Test compound with co-corrector)=[(test compound with co-corrector response−DMSO response)/(positive control response−DMSO response)]*100
The maximum % activity achieved for the test compound either without or with a co-corrector at any tested concentration is presented in Table 4 along with the respective EC50's calculated using the following general sigmoidal curve with variable Hill slope equation (described as Model 42 in the Accelrys® Assay Explorer v3.3 software):
General sigmoidal curve with concentration, response, top, bottom, EC50 and Hill slope. This model describes a sigmoidal curve with an adjustable baseline, a. The equation can be used to fit curves where response is either increasing or decreasing with respect to the independent variable, “x”.
“x” is a concentration of drug under test. “y” is the response. “a” is the maximum response, and “d” is the minimum response “c” is the inflection point (EC50) for the curve. That is, “y” is halfway between the lower and upper asymptotes when x=c. “b” is the slope-factor or Hill coefficient. The sign of b is positive when the response increases with increasing dose and is negative when the response decreases with increasing dose (inhibition).

[1] abbreviates: test compound without co-corrector.
Setting [2] is: test compound without co-corrector, read-out: EC50 (without co-corrector).
The mark [3] stands for this setting: with co-corrector (2 μM of 3-[(2R,4R)-4-({[1-(2,2-difluoro-1,3-benzodioxol-5-yl)cyclopropyl]carbonyl}amino)-7-methoxy-3,4-dihydro-2H-chromen-2-yl]benzoic acid), read-out: EC50 (with co-corrector).
The mark [4] stands for this setting: CSE-HRP, test compound without co-corrector, read-out: EC50 (without co-corrector).
Setting [5] is: CSE-HRP, with co-corrector (2 μM of 3-[(2R,4R)-4-({[1-(2,2-difluoro-1,3-benzodioxol-5-yl)cyclopropyl]carbonyl}amino)-7-methoxy-3,4-dihydro-2H-chromen-2-yl]benzoic acid), read-out: EC50 (with co-corrector).
Setting [6] is: CSE-HRP, with co-corrector (2 μM).
Setting [7] is: with co-corrector (2 μM of 3-[(2R,4R)-4-({[1-(2,2-difluoro-1,3-benzodioxol-5-yl)cyclopropyl]carbonyl}amino)-7-methoxy-3,4-dihydro-2H-chromen-2-yl]benzoic acid).

Read-outs that look alike come from different tables or passages of the source.

T1 sequence (P13569 with tags, fused parts or gaps DEL508-508): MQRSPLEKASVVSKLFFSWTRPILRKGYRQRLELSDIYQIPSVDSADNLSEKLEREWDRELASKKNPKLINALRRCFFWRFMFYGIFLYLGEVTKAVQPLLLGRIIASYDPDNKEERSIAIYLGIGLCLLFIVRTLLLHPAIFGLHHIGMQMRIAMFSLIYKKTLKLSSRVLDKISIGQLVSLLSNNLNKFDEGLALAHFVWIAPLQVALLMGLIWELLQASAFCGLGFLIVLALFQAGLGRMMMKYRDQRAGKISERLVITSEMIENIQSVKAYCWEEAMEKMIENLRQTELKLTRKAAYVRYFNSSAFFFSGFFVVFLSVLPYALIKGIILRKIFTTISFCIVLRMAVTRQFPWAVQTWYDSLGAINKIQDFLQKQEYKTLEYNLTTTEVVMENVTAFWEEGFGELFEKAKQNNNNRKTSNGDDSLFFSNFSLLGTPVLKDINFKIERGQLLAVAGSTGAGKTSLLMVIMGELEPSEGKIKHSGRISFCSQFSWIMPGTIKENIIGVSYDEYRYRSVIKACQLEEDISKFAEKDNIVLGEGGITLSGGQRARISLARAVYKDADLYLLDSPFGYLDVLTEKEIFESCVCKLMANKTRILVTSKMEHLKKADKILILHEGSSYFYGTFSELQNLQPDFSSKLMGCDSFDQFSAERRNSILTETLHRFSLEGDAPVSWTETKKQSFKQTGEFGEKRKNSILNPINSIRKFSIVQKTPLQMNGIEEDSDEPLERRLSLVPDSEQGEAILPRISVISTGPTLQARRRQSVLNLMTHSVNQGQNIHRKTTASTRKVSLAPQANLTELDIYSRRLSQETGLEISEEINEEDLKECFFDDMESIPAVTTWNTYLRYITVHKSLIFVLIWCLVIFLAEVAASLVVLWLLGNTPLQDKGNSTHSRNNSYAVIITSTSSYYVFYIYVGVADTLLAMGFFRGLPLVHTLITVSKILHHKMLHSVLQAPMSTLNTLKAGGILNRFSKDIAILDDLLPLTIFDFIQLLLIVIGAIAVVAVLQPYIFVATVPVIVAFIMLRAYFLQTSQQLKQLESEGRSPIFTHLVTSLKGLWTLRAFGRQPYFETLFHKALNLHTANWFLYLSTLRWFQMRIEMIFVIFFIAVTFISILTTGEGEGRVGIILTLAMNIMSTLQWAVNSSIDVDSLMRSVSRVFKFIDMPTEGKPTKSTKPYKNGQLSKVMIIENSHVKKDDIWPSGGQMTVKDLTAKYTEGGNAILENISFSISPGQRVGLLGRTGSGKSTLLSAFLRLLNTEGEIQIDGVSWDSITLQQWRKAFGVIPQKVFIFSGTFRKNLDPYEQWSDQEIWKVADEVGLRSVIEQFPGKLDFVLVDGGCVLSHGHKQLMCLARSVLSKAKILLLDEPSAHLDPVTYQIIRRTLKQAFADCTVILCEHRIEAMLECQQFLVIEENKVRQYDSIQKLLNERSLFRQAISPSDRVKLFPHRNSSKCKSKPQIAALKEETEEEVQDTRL

A word on the EC50: it is the concentration giving half of the maximal effect. In the case of `CC(C)(C)[C@H]1[C@H](NCc2ccc(F)cc2C(F)(F)F)[C@H](c2ccccc2)N(C(=O)C2CCCCC2)[C@@H]1C(=O)O` [III-123], under setting [1], the Emax was under 100%. Further, the EC50 is under 1000 nM under setting [2] and under 1000 nM under setting [3]. In addition, the “Maximum % activity (with co-corrector)” value (with co-corrector (2 μM)) is “++ (≥150 and <350)”.

Take `COc1cc(Cl)ccc1CN[C@H]1[C@H](C(C)(C)C)[C@@H](C(=O)O)N(C(=O)[C@H](OC)c2ccccc2)[C@H]1c1cccnc1N(C)C` (racemic) [II-47]: the 50% effective concentration (EC50) runs as follows: under setting [4], 1000 to 10000 nM; under setting [5], 1000 to 10000 nM. Under setting [6], the “Maximum % activity (with co-corrector)” value is “+++ (≥350)”. For the same compound, under “CSE-HRP, without co-corrector”, the Emax lay within 100 to 200%.

As to `COc1cc(C(F)(F)F)cc(N[C@@H]2[C@@H](C(C)(C)C)[C@H](C(=O)O)N(C(=O)OC(C)C)[C@@H]2c2ccccc2)n1` (racemic) [Example I-10], the concentration giving a half-maximal response (EC50) under setting [2] lay in the range of 1000 to 10000 nM and the EC50 under setting [3] was in the range of 1000 to 10000 nM. Besides, the “Maximum % activity (with co-corrector)” value (with co-corrector (2 μM)) is “+++ (≥350)”. The Emax (without co-corrector) is under 100%.

In the case of `COc1ncc(Br)cc1CN[C@H]1[C@H](C(C)(C)OC)[C@@H](C(=O)O)N(C(=O)C2CCCCC2)[C@H]1c1ccccc1` [II-247], the EC50 is 1000 to 10000 nM under setting [4] and under 1000 nM under setting [5]. Also, the “Maximum % activity (with co-corrector)” value under setting [6] is given as “+++ (≥350)”. Besides, where the note is “CSE-HRP, without co-corrector”, the Emax is 100 to 200%.

Turning to `COc1ccc(C(C)(C)C)cc1CN[C@H]1[C@H](C(C)(C)C)[C@@H](C(=O)O)N(C(=O)[C@@H]2CCCCO2)[C@H]1c1ccccc1Br` [Example 113, (2S,3S,4S,5S)-5-(2-bromophenyl)-3-tert-butyl-4-{[(5-tert-butyl-2-methoxyphenyl)methyl]amino}-1-[(2S)-oxane-2-carbonyl]pyrrolidine-2-carboxylic acid], the EC50 is 1000 to 10000 nM under setting [2] and under 1000 nM under setting [3]. The “Maximum % activity (with co-corrector)” value (with co-corrector (2 μM)) is reported as “+++ (≥350)”. Moreover, the Emax (without co-corrector) is over 200%.

On to `COc1ccc(C(C)(C)C)cc1CN[C@H]1[C@H](C(C)(C)C)[C@@H](C(=O)O)N(C(=O)C2CC(F)(F)C2)[C@H]1c1ccccc1` [II-336], for which the Emax under setting [1] is 100 to 200%. Further, the EC50 reads like this: under setting [2], 1000 to 10000 nM; under setting [3], 1000 to 10000 nM. Also, the “Maximum % activity (with co-corrector)” value under setting [7] is “+++ (≥350)”.

For the compound `COc1ccc(C(F)(F)F)cc1CN[C@@H]1[C@@H](C(C)(C)C)[C@H](C(=O)O)N(C(=O)[C@@H](OC)c2ccccc2)[C@@H]1c1ccccc1` [II-64], the EC50 reads like this: under setting [4], over 10000 nM; under setting [5], 1000 to 10000 nM. Besides, the “Maximum % activity (with co-corrector)” value under setting [6] was “++ (≥150 and <350)”. In addition, under “CSE-HRP, without co-corrector”, the Emax was under 100%.

Consider `COc1ccc(C(F)(F)F)cc1CN[C@@H]1[C@@H](C(C)(C)C)[C@H](C(=O)O)N(C(=O)C2CCCCC2)[C@@H]1c1ccccc1OC` (racemic) [II-17], for which the concentration for a half-maximal effect (EC50) under setting [4] was in the range of 1000 to 10000 nM and the EC50 under setting [5] lay in the range of 1000 to 10000 nM. The “Maximum % activity (with co-corrector)” value under setting [6] was “+++ (≥350)”. For the same compound, the Emax (CSE-HRP, without co-corrector) lay in the range of 100 to 200%.

For the compound `COc1ccc(C(C)(C)C)cc1CN[C@H]1[C@H](C(C)(C)C)[C@@H](C(=O)O)N(C(=O)[C@@H](C)c2ccccc2)[C@H]1c1cccnc1OC` [II-539], under setting [1], the Emax is under 100%. Moreover, the EC50 under setting [2] fell in the range of 1000 to 10000 nM and the concentration for a half-maximal effect (EC50) under setting [3] was in the range of 1000 to 10000 nM. Under setting [7], the “Maximum % activity (with co-corrector)” value is “++ (≥150 and <350)”.

Regarding `COc1ccc(C(C)(C)C)cc1CN[C@H]1[C@H](C(C)(C)C)[C@@H](C(=O)O)N(C(=O)[C@H](C)[C@H]2CCCCO2)[C@H]1c1ccccc1` (relative stereo) [Example I-196], the concentration for a half-maximal effect (EC50) reads like this: under setting [2], 1000 to 10000 nM; under setting [3], 1000 to 10000 nM. Further, the “Maximum % activity (with co-corrector)” value (with co-corrector (2 μM)) was “+++ (≥350)”. For the same compound, for the setting “without co-corrector”, the Emax is over 200%.

For `COc1ccc(-c2c(C)noc2C)cc1CN[C@H]1[C@H](C(C)(C)C)[C@@H](C(=O)O)N(C(=O)C2CCCCC2)[C@H]1c1ccccc1` [II-285], the 50% effective concentration (EC50) reads like this: under setting [4], 1000 to 10000 nM; under setting [5], 1000 to 10000 nM. Besides, the “Maximum % activity (with co-corrector)” value under setting [6] is “+++ (≥350)”. Besides, the Emax (CSE-HRP, without co-corrector) was in the range of 100 to 200%.
